Test results published in ChEMBL document CHEMBL1129232, “Synthesis and anti-HIV activity of dihydroisoxazole 6-chloropurine and adenine” (Bioorg Med Chem Lett, 1996).

Legend:
[1] = tested on: CCRF-CEM; assay: Compound was evaluated for cytotoxicity against CEM cells; assay type: functional, cell-based, Homo sapiens
[2] = Compound was evaluated for cytotoxicity against human lymphocytes (PBM cells); assay type: functional, cell-based; settings: PBMC
[3] = tested on: Vero; assay: Compound was evaluated for cytotoxicity against Vero cells; assay type: functional, cell-based; settings: Chlorocebus sabaeus
[4] = Median effective dose required for anti HIV-1 activity in PBM cells(Human lymphocytes); assay type: functional, cell-based; settings: PBMC

Q: With OCC1=NOC(n2cnc3c(Cl)ncnc32)C1 (stereo unspecified) as the compound, how does the IC50 ([1]; Homo sapiens, CCRF-CEM) read?
A: 35.2 µM

Q: And the IC50 [2]?
A: 73.5 µM

Q: And the IC50 [3]?
A: > 100 µM

Q: And the EC50 [4]?
A: 34.6 µM

Q: What does the source list for Nc1ncnc2c1ncn2C1CC(CO)=NO1 (stereo unspecified)?
A: IC50 ([1]; Homo sapiens, CCRF-CEM): > 100 µM; IC50 [2]: > 100 µM; IC50 [3]: > 100 µM; EC50 [4]: 54.8 µM

Q: Which IC50 ([1]; ccrf-cem) does the source give for Cc1cn([C@H]2C[C@H](N=[N+]=[N-])[C@@H](CO)O2)c(=O)[nH]c1=O [ZIDOVUDINE] here?
A: 14 µM

Q: And the IC50 [2]?
A: > 100 µM

Q: What about the EC50 [4] of the same compound?
A: 0.004 µM
